Results as given in PMC10533412, “Phosphoantigens glue butyrophilin 3A1 and 2A1 to activate Vγ9Vδ2 T cells” (Nature, 2023).
Where “and” joins values, the source holds several entries; their conditions need not be identical. Equal entries are not always repeated. Where two headings read alike, the source gives them in different places.

Key:
[1] = system: BTN2A−/− MIA PaCa-2 (BTN2A1/BTN2A2 KO) cells; experiment: Cell killing assay with BTN2A−/− MIA PaCa-2 (BTN2A1/BTN2A2 KO) cells expressing BTN2A1/BTN2A2 variants; conditions: for Cytotoxicity of Vγ9Vδ2 T cells (percentage of specific lysis): replicates; for EC50: Homo sapiens
Protocol: MIA PaCa-2 cells were infected with lentivirus bearing luciferase transgene. Luciferase-positive cells were plated at 5.0 × 10^3 cells per well in 384-well plates 1 day before transfection. All plasmids were transfected into BTN2A^−/− MIA PaCa-2 (BTN2A1/BTN2A2 KO) cells using Lipofectamine 2000 reagent. […] Stable-lite luciferase (Vazyme) was added to each well and the luciferase signal was immediately measured by using the PerkinElmer EnVision microplate reader.
Percentage of lysis was calculated using the following equation: percentage of specific lysis = (maximum luciferase − experimental luciferase)/maximum luciferase × 100.

[2] = target: T1, BTN2A1 B30.2–BTN3A1 B30.2 (Homo sapiens, UniProt O00481+Q7KYR7); experiment: SEC–MALS of BTN2A1 B30.2–BTN3A1 B30.2 with or without HMBPP; conditions: listed as HMBPP
T1 construct: The BTN3A1 B30.2 domain was expressed and purified as described previously; 6xHis; made in house; host or cells: Escherichia coli BL21 (DE3) for BTN2A1 B30.2
Protocol: SEC–MALS experiments were performed using the Wyatt Dawn Heleos II multiangle light-scattering detector (Wyatt Technology) coupled to an AKTA Purifier UPC10 FPLC protein purification system and the Superdex 200 size-exclusion column (GE Healthcare). Protein molecular masses of the individual peaks observed in the size-exclusion chromatograms were analysed by static light scattering in conjunction with their corresponding refractive indices, using an online refractometer connected downstream of the static light scattering detector (Wyatt Optilab rEX). The proteins were prepared at 5 mg ml^−1 in a buffer (20 mM HEPES pH 7.5, 150 mM NaCl). HMBPP was prepared in 0.5 mM. The experiments were performed with a running buffer (20 mM HEPES pH 7.5, 150 mM NaCl) at a flow rate of 0.5 ml min^−1. A standard value of the refractive index, dn/dc = 0.185 ml g^−1, was used for all proteins.

[3] = target: T1, BTN2A1 B30.2–BTN3A1 B30.2; experiment: Sedimentation velocity AUC of BTN2A1 B30.2 and BTN3A1 B30.2 with or without HMBPP; conditions: SV-AUC
Protocol: Sedimentation experiments were performed at 20 °C and 45,000 rpm on the Beckman Coulter ProteomeLab XL-I analytical ultracentrifuge according to standard protocols. All of the samples were prepared in the buffer (20 mM HEPES pH 7.5, 150 mM NaCl) and inserted into 12 mm (or 3 mm) Epon centerpieces.

[4] = target: T2, BTN3A3(R351H) B30.2 (Homo sapiens, UniProt O00478); experiment: ITC: HMBPP binding to BTN3A3(R351H) B30.2
T2 construct: the B30.2 domain of this active mutant (BTN3A3(R351H))
Protocol: (§1) ITC binding fits were calculated using MicroCal Analysis software.

[5] = system: Vγ9Vδ2 T cells; conditions: cited from earlier work
[6] = target: BTN2A1 B30.2 domain (Homo sapiens, UniProt Q7KYR7); conditions: ITC
Protocol: (§2) ITC experiments were performed using the MicroCal PEAQ-ITC instrument (GE Healthcare) at 25 °C. We used an initial injection of 0.4 μl followed by 19 injections (2 µl each) at 150 s time intervals. ITC binding fits were calculated using MicroCal Analysis software. The samples were prepared using a buffer (20 mM HEPES pH 7.5, 150 mM NaCl).

[7] = system: VpBTN1 BFI–VpBTN3 BFI; experiment: ITC: VpBTN1 BFI binding to VpBTN3 BFI in the presence of pAg; parameters: species or system alpaca (Vicugna pacos)
Protocol: as §2
(§3) ITC experiments of HMBPP, DMAPP or IPP binding to the VpBTN3 BFI (or the preconditioned VpBTN3 BFI and VpBTN2 BFI complex) and VpBTN2 BFI (or VpBTN1 BFI) binding to VpBTN3 BFI in the presence of HMBPP, DMAPP or IPP were performed according to the same procedures as for the BTN3A1 B30.2 and BTN2A1 B30.2.

[8] = system: VpBTN2 BFI–VpBTN3 BFI; experiment: ITC: VpBTN2 BFI binding to VpBTN3 BFI in the presence of pAg; parameters: species or system alpaca (Vicugna pacos)
Protocol: as §1, §3

[9] = Ext. Fig. 6d, cells expressing 2A2 W374R/M506T, three-parameter fit
[10] = Ext. Fig. 6d, cells expressing 2A2 W374R, three-parameter fit
[11] = Ext. Fig. 6d, cells expressing 2A2 WT, three-parameter fit

T1 sequence (O00481 322-513 limits assumed): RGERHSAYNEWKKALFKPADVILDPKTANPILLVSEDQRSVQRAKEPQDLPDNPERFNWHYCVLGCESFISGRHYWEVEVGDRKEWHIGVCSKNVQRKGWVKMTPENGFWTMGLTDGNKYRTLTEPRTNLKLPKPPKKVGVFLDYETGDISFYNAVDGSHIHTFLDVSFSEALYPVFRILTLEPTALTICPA
T1 sequence (Q7KYR7 316-527 limits assumed): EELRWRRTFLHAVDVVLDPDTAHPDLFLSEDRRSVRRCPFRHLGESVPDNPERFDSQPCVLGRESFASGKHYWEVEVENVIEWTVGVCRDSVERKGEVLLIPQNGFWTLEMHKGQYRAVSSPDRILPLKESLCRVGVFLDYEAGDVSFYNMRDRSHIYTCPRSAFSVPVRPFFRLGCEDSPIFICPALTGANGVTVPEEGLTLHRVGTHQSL
T2 sequence (O00478 322-518 R381H): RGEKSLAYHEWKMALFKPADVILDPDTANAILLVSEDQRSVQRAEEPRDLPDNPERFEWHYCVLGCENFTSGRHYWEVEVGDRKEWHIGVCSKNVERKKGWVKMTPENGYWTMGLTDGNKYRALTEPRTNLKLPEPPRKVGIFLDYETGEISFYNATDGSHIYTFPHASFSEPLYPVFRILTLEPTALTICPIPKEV
BTN2A1 B30.2 domain, sequence (Q7KYR7 316-527 limits assumed): as the sequence (Q7KYR7 316-527 limits assumed) above

C/C(=C\COP(=O)(O)OP(=O)(O)O)CO [Compound 1, (E)-4-hydroxy-3-methylbut-2-en-1-yl diphosphate]
Bottom (best-fit value) [1, 9]: 21.03 | Span (best-fit value) [1, 9]: 27.17 | Top (best-fit value) [1, 9]: 48.19 | Bottom (best-fit value) [1, 10]: 17.13 | Span (best-fit value) [1, 10]: 18.41 | Top (best-fit value) [1, 10]: 35.54 | Bottom (best-fit value) [1, 11]: 21.2 | Span (best-fit value) [1, 11]: 14.17 | Top (best-fit value) [1, 11]: 35.37 | Cytotoxicity of Vγ9Vδ2 T cells (percentage of specific lysis) ([1]; HMBPP log concentration -4, 2A1 WT cells): 70.1646% and 71.1001% and 71.513% | Cytotoxicity of Vγ9Vδ2 T cells (percentage of specific lysis) ([1]; HMBPP log concentration -4, 2A1 ∆C cells): 41.112% and 41.0173% and 41.0139% | Cytotoxicity of Vγ9Vδ2 T cells (percentage of specific lysis) ([1]; HMBPP log concentration -5, 2A1 WT cells): 64.2316% and 64.2674% and 65.8786% | Cytotoxicity of Vγ9Vδ2 T cells (percentage of specific lysis) ([1]; HMBPP log concentration -5, 2A1 ∆C cells): 23.0147% and 25.2364% and 24.5941% | Cytotoxicity of Vγ9Vδ2 T cells (percentage of specific lysis) ([1]; HMBPP log concentration -6, 2A1 WT cells): 56.2518% and 58.0065% and 60.1294% | Cytotoxicity of Vγ9Vδ2 T cells (percentage of specific lysis) ([1]; HMBPP log concentration -6, 2A1 ∆C cells): 18.5277% and 22.0034% and 20.9688% | Cytotoxicity of Vγ9Vδ2 T cells (percentage of specific lysis) ([1]; HMBPP log concentration -7, 2A1 WT cells): 48.0249% and 51.1234% and 56.1132% | Cytotoxicity of Vγ9Vδ2 T cells (percentage of specific lysis) ([1]; HMBPP log concentration -7, 2A1 ∆C cells): 26.9403% and 18.9725% and 19.5843% | Cytotoxicity of Vγ9Vδ2 T cells (percentage of specific lysis) ([1]; HMBPP log concentration -8, 2A1 WT cells): 44.2956% and 44.0311% and 51.5761% | Cytotoxicity of Vγ9Vδ2 T cells (percentage of specific lysis) ([1]; HMBPP log concentration -8, 2A1 ∆C cells): 23.996% and 19.5568% and 15.4363% | Cytotoxicity of Vγ9Vδ2 T cells (percentage of specific lysis) ([1]; HMBPP log concentration -9, 2A1 WT cells): 35.2231% and 37.6052% and 42.4431% | Cytotoxicity of Vγ9Vδ2 T cells (percentage of specific lysis) ([1]; HMBPP log concentration -9, 2A1 ∆C cells): 20.428% and 19.6068% and 15.0611% | Cytotoxicity of Vγ9Vδ2 T cells (percentage of specific lysis) ([1]; HMBPP log concentration -10, 2A1 WT cells): 29.643% and 30.0604% and 32.9175% | Cytotoxicity of Vγ9Vδ2 T cells (percentage of specific lysis) ([1]; HMBPP log concentration -10, 2A1 ∆C cells): 15.4573% and 16.0868% and 15.1497% | Cytotoxicity of Vγ9Vδ2 T cells (percentage of specific lysis) ([1]; HMBPP log concentration -11, 2A1 WT cells): 26.3218% and 25.6969% and 24.6851% | Cytotoxicity of Vγ9Vδ2 T cells (percentage of specific lysis) ([1]; HMBPP log concentration -11, 2A1 ∆C cells): 16.8095% and 15.8259% and 16.2096% | EC50 ([1]; MIA PaCa-2, 144 h, Ext. Fig. 6d, cells expressing 2A1 WT, three-parameter fit): 90.3 nM | EC50 ([1]; MIA PaCa-2, 144 h, Ext. Fig. 6d, cells expressing 2A2 G352Y354QR/M506T/W374R, three-parameter fit): 176 nM | EC50 ([1]; MIA PaCa-2, 144 h, Ext. Fig. 6d, cells expressing 2A2 M506T, three-parameter fit): 266 nM | EC50 ([1]; MIA PaCa-2, 144 h, Ext. Fig. 6d, cells expressing 2A2 W374R/M506T, three-parameter fit): 191 nM | EC50 ([1]; MIA PaCa-2, 144 h, read-out: LogEC50, Ext. Fig. 6d (converted), cells expressing 2A1 WT, log(Concentration)/M, three-parameter fit): 90.2 nM | EC50 ([1]; MIA PaCa-2, 144 h, read-out: LogEC50, Ext. Fig. 6d (converted), cells expressing 2A2 G352Y354QR/M506T/W374R, log(Concentration)/M, three-parameter fit): 176 nM | EC50 ([1]; MIA PaCa-2, 144 h, read-out: LogEC50, Ext. Fig. 6d (converted), cells expressing 2A2 M506T, log(Concentration)/M, three-parameter fit): 267 nM | EC50 ([1]; MIA PaCa-2, 144 h, read-out: LogEC50, Ext. Fig. 6d (converted), cells expressing 2A2 W374R/M506T, log(Concentration)/M, three-parameter fit): 191 nM | EC50 ([1]; MIA PaCa-2, read-out: EC50 (nM), MIA PaCa-2 cell lysis by Vγ9Vδ2 T cells exposed to HMBPP, 2A1 WT): 90.3 nM | EC50 ([1]; MIA PaCa-2, read-out: EC50 (nM), MIA PaCa-2 cell lysis by Vγ9Vδ2 T cells exposed to HMBPP, active chimera bearing G352Y354QR/ M506T/W374R): 176 nM | EC50 ([1]; MIA PaCa-2, read-out: EC50 (nM), MIA PaCa-2 cell lysis by Vγ9Vδ2 T cells exposed to HMBPP, active chimera bearing W374R/M506T): 191 nM | EC50 ([1]; MIA PaCa-2, read-out: EC50 (μM) of Vγ9Vδ2 T cells towards BTN2A−/− MIA PaCa-2 in the presence of HMBPP, NT cells): 12800 nM | EC50 ([1]; MIA PaCa-2, read-out: EC50 (μM) of Vγ9Vδ2 T cells towards BTN2A−/− MIA PaCa-2 in the presence of HMBPP, transfected 2A1 WT): 800 nM | EC50 ([1]; MIA PaCa-2, read-out: EC50 (μM) of Vγ9Vδ2 T cells towards BTN2A−/− MIA PaCa-2 in the presence of HMBPP, transfected 2A1 variant D455G/E457R): 61100 nM | EC50 ([1]; MIA PaCa-2, read-out: EC50 (μM) of Vγ9Vδ2 T cells towards BTN2A−/− MIA PaCa-2 in the presence of HMBPP, transfected 2A1 variant R477A): 19700 nM | EC50 ([1]; MIA PaCa-2, read-out: EC50 (μM) of Vγ9Vδ2 T cells towards BTN2A−/− MIA PaCa-2 in the presence of HMBPP, transfected 2A1 variant T510A): 1.17e+06 nM | EC50 ([1]; MIA PaCa-2, read-out: EC50 (μM) of Vγ9Vδ2 T cells towards BTN2A−/− MIA PaCa-2 in the presence of HMBPP, transfected 2A1 variant T510M): 97700 nM | EC50 ([1]; MIA PaCa-2, read-out: EC50 (μM) of Vγ9Vδ2 T cells towards BTN2A−/− MIA PaCa-2 in the presence of HMBPP, transfected 2A1 variant V511A): 130000 nM | EC50 ([1]; MIA PaCa-2, read-out: EC50 (μM) of Vγ9Vδ2 T cells towards BTN2A−/− MIA PaCa-2 in the presence of HMBPP, transfected 2A1 variant V511D): 12500 nM | EC50 ([1]; MIA PaCa-2, read-out: EC50 (μM) of Vγ9Vδ2 T cells towards BTN2A−/− MIA PaCa-2 in the presence of HMBPP, transfected 2A1 variant V511W): 389000 nM | EC50 ([1]; MIA PaCa-2, read-out: EC50 (μM) of Vγ9Vδ2 T cells towards BTN2A−/− MIA PaCa-2 in the presence of HMBPP, transfected 2A1 variant ΔC): 17500 nM | EC50 ([1]; MIA PaCa-2, read-out: EC50, MIA PaCa-2 lysis, BTN2A−/− MIA PaCa-2 stably expressing BTN2A1 WT): 12.9 nM | EC50 ([1]; MIA PaCa-2, read-out: EC50, best-fit value, 2A1 WT, unit not printed in the sheet (b166 prints […])): 12.9 nM | EC50 ([1]; MIA PaCa-2, read-out: EC50, best-fit value, 2A1 ∆C, unit not printed in the sheet (b166 prints […])): 43900 nM | Molecular mass of BTN2A1 B30.2–BTN3A1 B30.2 oligomer formed on addition of HMBPP (trimer) [2]: 78.7 kDa | Molecular mass of BTN2A1 B30.2–BTN3A1 B30.2 oligomer formed on addition of HMBPP (tetramer) [3]: 94.9 kDa | Kd [4]: 10.9 µM | EC50 for Vγ9Vδ2 T cell activation [5]: picomolar range | HMBPP binding to BTN2A1 B30.2 domain [6]: does not bind | VpBTN1 binding to VpBTN3 in the presence of pAg [7]: does not bind | Binding of VpBTN2 mutants (R475A, T508M and V509A) to VpBTN3 in the presence of HMBPP [8]: abolished its binding
